The record followed here is PMC9151520 (Archives of Toxicology, 2022).

Data set [1] has as its system p53 signaling (p53RE-bla HCT-116 cells). Kind of data set: cells. It is filed as cell-based.
Data set [2] has the same test system.
The test system is the same in data set [3]. The source holds these as a separate data set.
Setting [4] is: read-out: p53 activation EC50, primary screening.
Where [5] appears, read: Homo sapiens, HCT-116, read-out: EC50, p53 activation, primary screening.
The mark [6] stands for this setting: Homo sapiens, HCT-116, read-out: Efficacy, p53 activation, primary screening.
Where [7] appears, read: Homo sapiens, HCT-116, read-out: p53 activation EC50, primary screening.
Where [8] appears, read: Homo sapiens, HCT-116, read-out: p53 activation efficacy, primary screening.

Where “and” joins values, the source holds several entries; their conditions need not be identical. Equal values may be shown once. Read-outs that look alike come from different tables or passages of the source.

In general, EC50 refers to the concentration that produces a half-maximal response. In the case of `COc1ccc(C(=O)/C(Br)=C\C(=O)[O-])cc1.[Na+]` [Cytembena], in data set [1], the “p53 activation EC50, cherry pick confirmation” value is “inactive”; the “p53 activation efficacy, cherry pick confirmation” value was “inactive”; the “p53 activation efficacy, primary screening” value amounted to 55.202. In data set [1] (setting [4]), the EC50 amounted to 21 µM. In data set [2], the “p53 activation EC50, cherry pick confirmation” value was “inactive”; the “p53 activation EC50, primary screening” value is “inactive”; the “p53 activation efficacy, cherry pick confirmation” value was “inactive”; the “p53 activation efficacy, primary screening” value is “inactive”. Further, in data set [3], the “p53 activation EC50, cherry pick confirmation” value was “inactive”; the “p53 activation EC50, primary screening” value is “inactive”; the “p53 activation efficacy, cherry pick confirmation” value was “inactive”; the “p53 activation efficacy, primary screening” value was “inactive”. Also, in the data set on p53RE-bla HCT-116 cells, the “Viability EC50, cherry pick confirmation” value was “inactive”; the “Viability EC50, primary screening” value was “inactive”; the “Viability efficacy, primary screening” value is “inactive”. Also, the EC50 with p53RE-bla HCT-116 cells (read-out: Viability EC50, cherry pick confirmation) turned out to be 43.2 µM.

`CCS(=O)(=O)CCSP(=O)(OC)OC` [Demeton-S-methylsulphon]: in data set [1], the “p53 activation EC50” value is “inactive” and the p53 activation efficacy result was “inactive”. Moreover, in data set [2], the EC50 came to 11.8 µM; the p53 activation efficacy is 41.936 and 34.343. In addition, the “p53 activation EC50” value in data set [3] is “inactive”. Moreover, in the data set on p53RE-bla HCT-116 cells, the “Viability EC50” value was “inactive” and the Viability efficacy result is “inactive”.

As to `CCC[CH2][Sn]([Cl])([Cl])[CH2]CCC` [Dibutyltin dichloride], in data set [1], the “EC50, p53 activation, cherry pick confirmation” value is “inactive”; the “Efficacy, p53 activation, cherry pick confirmation” value was “inactive”; the “Efficacy, p53 activation, primary screening” value came out at 73.9367. Also, the EC50 in data set [1] (read-out: EC50, p53 activation, primary screening) was 27.1 µM. In data set [2], the “EC50, p53 activation, cherry pick confirmation” value was “inactive”; the “EC50, p53 activation, primary screening” value is “inactive”; the “Efficacy, p53 activation, cherry pick confirmation” value was “inactive”; the “Efficacy, p53 activation, primary screening” value was “inactive”. Besides, in data set [3], the “EC50, p53 activation, cherry pick confirmation” value is “inactive”; the “EC50, p53 activation, primary screening” value is “inactive”; the “Efficacy, p53 activation, cherry pick confirmation” value was “inactive”; the “Efficacy, p53 activation, primary screening” value was “inactive”. Further, in the data set with p53RE-bla HCT-116 cells, the “EC50, viability, primary screening” value is “inactive”.

With `O=C(O)Cc1ccccc1Nc1c(Cl)cccc1Cl` [Diclofenac sodium], in data set [1], the “EC50, p53 activation, cherry pick confirmation” value is “inactive” and the “Efficacy, p53 activation, cherry pick confirmation” value was “inactive”. Further, the EC50 in data set [1] (setting [5]) worked out at 51.3 µM. For the same compound, the Emax in data set [1] (setting [6]) was 38.2%. In data set [2], the “EC50, p53 activation, cherry pick confirmation” value was “inactive”; the “EC50, p53 activation, primary screening” value was “inactive”; the “Efficacy, p53 activation, cherry pick confirmation” value was “inactive”; the “Efficacy, p53 activation, primary screening” value is “inactive”. Moreover, in data set [3], the “EC50, p53 activation, cherry pick confirmation” value is “inactive”; the “EC50, p53 activation, primary screening” value was “inactive”; the “Efficacy, p53 activation, cherry pick confirmation” value is “inactive”; the “Efficacy, p53 activation, primary screening” value is “inactive”. In the data set with p53RE-bla HCT-116 cells, the “EC50, viability, cherry pick confirmation” value is “inactive”; the “EC50, viability, primary screening” value was “inactive”; the “Efficacy, viability, cherry pick confirmation” value is “inactive”; the “Efficacy, viability, primary screening” value is “inactive”.

With `C/C=C(/C(=C/C)c1ccc(O)cc1)c1ccc(O)cc1` [Dienestrol], the EC50 in data set [1] (Homo sapiens, HCT-116, read-out: p53 activation EC50, cherry pick confirmation) is 7.79 µM. Besides, the EC50 in data set [1] (setting [7]) worked out at 7.81 µM. For the same compound, the Emax in data set [1] (Homo sapiens, HCT-116, read-out: p53 activation efficacy, cherry pick confirmation) came out at 36.1%. Moreover, the Emax in data set [1] (setting [8]) is 32.6%. Further, in data set [2], the “p53 activation EC50, cherry pick confirmation” value is “inactive”; the “p53 activation EC50, primary screening” value was “inactive”; the “p53 activation efficacy, cherry pick confirmation” value is “inactive”; the “p53 activation efficacy, primary screening” value is “inactive”. In data set [3], the “p53 activation EC50, cherry pick confirmation” value was “inactive”; the “p53 activation EC50, primary screening” value is “inactive”; the “p53 activation efficacy, cherry pick confirmation” value was “inactive”; the “p53 activation efficacy, primary screening” value was “inactive”. In the data set with p53RE-bla HCT-116 cells, the “Viability EC50, cherry pick confirmation” value was “inactive”; the “Viability EC50, primary screening” value is “inactive”; the “Viability efficacy, cherry pick confirmation” value was “inactive”; the “Viability efficacy, primary screening” value is “inactive”.

On to `CC/C(=C(/CC)c1ccc(O)cc1)c1ccc(O)cc1` [Diethylstilbestrol], for which, in data set [1], the “p53 activation EC50, cherry pick confirmation” value is “inactive” and the “p53 activation efficacy, cherry pick confirmation” value was “inactive”. In addition, the Emax in data set [1] (setting [8]) came out at 42.5%. In data set [2], the “p53 activation EC50, cherry pick confirmation” value was “inactive”; the “p53 activation EC50, primary screening” value is “inactive”; the “p53 activation efficacy, cherry pick confirmation” value is “inactive”; the “p53 activation efficacy, primary screening” value was “inactive”. Further, in data set [3], the “p53 activation EC50, cherry pick confirmation” value was “inactive”; the “p53 activation EC50, primary screening” value was “inactive”; the “p53 activation efficacy, cherry pick confirmation” value is “inactive”; the “p53 activation efficacy, primary screening” value is “inactive”. Besides, in the data set on p53RE-bla HCT-116 cells, the “Viability EC50, cherry pick confirmation” value was “inactive”; the “Viability EC50, primary screening” value is “inactive”; the “Viability efficacy, cherry pick confirmation” value was “inactive”.

In the case of `CCC(C)c1cc([N+](=O)[O-])cc([N+](=O)[O-])c1OC(=O)OC(C)C` (centres unmarked) [Dinobuton], in data set [1], the “p53 activation EC50, cherry pick confirmation” value is “inactive” and the “p53 activation efficacy, cherry pick confirmation” value was “inactive”. Moreover, the EC50 in data set [1] (setting [7]) is 49.5 µM. Besides, in data set [1] (setting [8]), the Emax was found to be 74.7%. Also, in data set [2], the “p53 activation EC50, cherry pick confirmation” value was “inactive”; the “p53 activation EC50, primary screening” value is “inactive”; the “p53 activation efficacy, cherry pick confirmation” value was “inactive”; the “p53 activation efficacy, primary screening” value is “inactive”. Besides, in data set [3], the “p53 activation EC50, cherry pick confirmation” value was “inactive”; the “p53 activation EC50, primary screening” value is “inactive”; the “p53 activation efficacy, cherry pick confirmation” value was “inactive”; the “p53 activation efficacy, primary screening” value was “inactive”. For the same compound, in the data set with p53RE-bla HCT-116 cells, the “Viability EC50, cherry pick confirmation” value is “inactive”; the “Viability EC50, primary screening” value is “inactive”; the “Viability efficacy, cherry pick confirmation” value was “inactive”; the “Viability efficacy, primary screening” value is “inactive”.

Regarding `O=S(=O)(O)c1ccccc1C=Cc1ccc(-c2ccc(C=Cc3ccccc3S(=O)(=O)O)cc2)cc1.[Na].[Na]` [Disodium 4,4'-bis(2-sulfostyryl)biphenyl], in data set [1], the “activity outcome in p53-bla assay” value is on record as “also active in the absence of microsomes”; the “p53 activation Efficacy, No MS” value is 37.8243% and 32.5267%. Moreover, the half-maximal effective concentration (EC50) in data set [1] (read-out: p53 activation EC50, No MS) was 25.3 µM and 34.2 µM. In data set [2], the midpoint of the response, the EC50, lay at 29.8 µM. The EC50 in data set [2] (read-out: p53 activation EC50, RLM) was 29.8 µM and 24.9 µM. Further, the “activity outcome in p53-bla assay” value in data set [3] is “active”. Besides, the EC50 in data set [3] (read-out: p53 activation EC50, HLM) is 18.8 µM and 28.2 µM. For the same compound, in the data set with p53RE-bla HCT-116 cells, the “Viability EC50, HLM” value is “inactive”; the “Viability EC50, No MS” value is “inactive”; the “Viability EC50, RLM” value is “inactive”; the “Viability Efficacy, HLM” value was “inactive”. In the data set on p53RE-bla HCT-116 cells, the “Viability Efficacy, No MS” value is “inactive” and the “Viability Efficacy, RLM” value is “inactive”.

As for `C[C@H]1O[C@@H](n2cc(F)c(=O)[nH]c2=O)[C@H](O)[C@@H]1O` [Doxifluridine], in data set [1], the “EC50, p53 activation, cherry pick confirmation” value was “inactive” and the “Efficacy, p53 activation, cherry pick confirmation” value was “inactive”. For the same compound, the EC50 in data set [1] (setting [5]) turned out to be 10.6 µM. Further, the Emax in data set [1] (setting [6]) was 83.9%. Further, in data set [2], the “EC50, p53 activation, cherry pick confirmation” value was “inactive”; the “EC50, p53 activation, primary screening” value is “inactive”; the “Efficacy, p53 activation, cherry pick confirmation” value is “inactive”; the “Efficacy, p53 activation, primary screening” value is “inactive”. In data set [3], the “EC50, p53 activation, cherry pick confirmation” value is “inactive”; the “EC50, p53 activation, primary screening” value is “inactive”; the “Efficacy, p53 activation, cherry pick confirmation” value was “inactive”; the “Efficacy, p53 activation, primary screening” value is “inactive”. In the data set with p53RE-bla HCT-116 cells, the “EC50, viability, cherry pick confirmation” value was “inactive”; the “EC50, viability, primary screening” value is “inactive”; the “Efficacy, viability, cherry pick confirmation” value was “inactive”; the “Efficacy, viability, primary screening” value is “inactive”.

In the case of `CC(O)C(=O)O.CCOc1ccc2nc3cc(N)ccc3c(N)c2c1.O` [Ethacridine lactate hydrate], in data set [1], the “p53 activation efficacy, cherry pick confirmation” value was 145.785 and the “p53 activation efficacy, primary screening” value is given as 113.254. Also, the EC50 in data set [1] (read-out: p53 activation EC50, cherry pick confirmation) is 19.1 µM. Also, the EC50 in data set [1] (setting [4]) came to 21.5 µM. Also, in data set [2], the “p53 activation EC50, cherry pick confirmation” value is “inactive”; the “p53 activation EC50, primary screening” value is “inactive”; the “p53 activation efficacy, cherry pick confirmation” value is “inactive”; the “p53 activation efficacy, primary screening” value was “inactive”. In addition, in data set [3], the “p53 activation EC50, cherry pick confirmation” value was “inactive”; the “p53 activation EC50, primary screening” value is “inactive”; the “p53 activation efficacy, cherry pick confirmation” value is “inactive”; the “p53 activation efficacy, primary screening” value is “inactive”. In addition, in the data set with p53RE-bla HCT-116 cells, the “Viability EC50, cherry pick confirmation” value is “inactive”; the “Viability EC50, primary screening” value is “inactive”; the “Viability efficacy, cherry pick confirmation” value is “inactive”; the “Viability efficacy, primary screening” value was “inactive”.
